The source of these data is patent US10752615B2, “Spirocyclic containing compounds and pharmaceutical uses thereof” (GB005, Inc., priority 2016, dated 2020).

The structures appear in SMILES notation.

One experiment addresses TXK (Homo sapiens (Human), UniProt P42681). Briefly: Kinase inhibition assay (Nanosyn, microfluidic detection), TXK. The experiment is classed as biochemical. The following applies: 1 mM ATP, 3 hours at 25° C. As for the experimental part:
The in vitro kinase assays were performed at Nanosyn (Santa Clara, Calif.) utilizing microfluidic detection technology. The test compounds were serially pre-diluted in DMSO and added, by the acoustic dispensing (Labcyte® 550), directly to 384 well assay plates into 10 uL of a buffer with enzyme (ITK, TXK, BTK or TEC) comprising: 100 mM HEPES, pH7.5, 5 mM MgCl2, 0.1% bovine serum albumin, 1 mM DTT, 0.01% Triton X-100 and the enzyme. Final DMSO concentration was maintained at 1% in all samples, including the controls. The reactions were initiated by addition of ATP (1 mM final concentration) and the fluorescently labeled peptide substrate to a final concentration of 1 uM, and incubated for 3 hours at 25° C. Following incubation, the reactions were quenched by addition of 40 μL of termination buffer (100 mM HEPES, pH7.5, 0.01% Triton X-100, 50 mM EDTA). Terminated plates were analyzed using Caliper LabChip® 3000 microfluidic electrophoresis instrument (Caliper Life Sciences/Perkin Elmer). […] As substrate and product are separated by electrophoresis, two peaks of fluorescence are observed. Change in the relative fluorescence intensity of the substrate and product peaks was the parameter measured, reflecting enzyme activity. In the presence of inhibitor, the ratio between product and substrate is altered: signal of the product decreases, while the signal of the substrate increases. Activity in each test sample was determined as the product to sum ratio (PSR): P/(S+P), where P is the peak height of the product and S is the peak height of the […]. For each compound, enzyme activity was measured at 12 concentrations spaced by 3× dilution intervals. Negative control samples (0%-inhibition in the absence of inhibitor, DMSO only) and positive control samples (100%-inhibition, in the absence of enzyme or in the presence of control inhibitor) were assembled in replicates of four and were used to calculate %-inhibition values in the presence of compounds. Percent inhibition (Pinh) was determined using the following equation: Pinh=(PSR0%−PSRinh)/(PSR0%−PSR100%)*100, where PSRinh is the product sum ratio in the presence of inhibitor, PSR0% is the product sum ratio in the absence of inhibitor and PSR100% is the product sum ratio in 100%-inhibition control samples. To determine IC50 values, the inhibition curves (Pinh versus inhibitor concentration) were fitted by 4 parameter sigmoid dose-response model using XLfit software (IDBS).

A further experiment concerns the target BTK (Homo sapiens (Human), UniProt Q06187). Briefly: Kinase inhibition assay (Nanosyn, microfluidic detection), BTK. The experiment is classed as biochemical. To be noted: 1 mM ATP, 3 hours at 25° C. As for the experimental part: The in vitro kinase assays were performed at Nanosyn (Santa Clara, Calif.) utilizing microfluidic detection technology. The test compounds were serially pre-diluted in DMSO and added, by the acoustic dispensing (Labcyte® 550), directly to 384 well assay plates into 10 uL of a buffer with enzyme (ITK, TXK, BTK or TEC) comprising: 100 mM HEPES, pH7.5, 5 mM MgCl2, 0.1% bovine serum albumin, 1 mM DTT, 0.01% Triton X-100 and the enzyme. Final DMSO concentration was maintained at 1% in all samples, including the controls. The reactions were initiated by addition of ATP (1 mM final concentration) and the fluorescently labeled peptide substrate to a final concentration of 1 uM, and incubated for 3 hours at 25° C. Following incubation, the reactions were quenched by addition of 40 μL of termination buffer (100 mM HEPES, pH7.5, 0.01% Triton X-100, 50 mM EDTA). Terminated plates were analyzed using Caliper LabChip® 3000 microfluidic electrophoresis instrument (Caliper Life Sciences/Perkin Elmer). The enzymatic modification of the peptide substrate (phosphorylation) results in a change of net charge enabling electrophoretic separation of product from substrate. As substrate and product are separated by electrophoresis, two peaks of fluorescence are observed. Change in the relative fluorescence intensity of the substrate and product peaks was the parameter measured, reflecting enzyme activity. In the presence of inhibitor, the ratio between product and substrate is altered: signal of the product decreases, while the signal of the substrate increases. Activity in each test sample was determined as the product to sum ratio (PSR): P/(S+P), where P is the peak height of the product and S is the peak height of the […]. For each compound, enzyme activity was measured at 12 concentrations spaced by 3× dilution intervals. Negative control samples (0%-inhibition in the absence of inhibitor, DMSO only) and positive control samples (100%-inhibition, in the absence of enzyme or in the presence of control inhibitor) were assembled in replicates of four and were used to calculate %-inhibition values in the presence of compounds. Percent inhibition (Pinh) was determined using the following equation: Pinh=(PSR0%−PSRinh)/(PSR0%−PSR100%)*100, where PSRinh is the product sum ratio in the presence of inhibitor, PSR0% is the product sum ratio in the absence of inhibitor and PSR100% is the product sum ratio in 100%-inhibition control samples. To determine IC50 values, the inhibition curves (Pinh versus inhibitor concentration) were fitted by 4 parameter sigmoid dose-response model using XLfit software (IDBS).

TXK, sequence (P42681 whole entry): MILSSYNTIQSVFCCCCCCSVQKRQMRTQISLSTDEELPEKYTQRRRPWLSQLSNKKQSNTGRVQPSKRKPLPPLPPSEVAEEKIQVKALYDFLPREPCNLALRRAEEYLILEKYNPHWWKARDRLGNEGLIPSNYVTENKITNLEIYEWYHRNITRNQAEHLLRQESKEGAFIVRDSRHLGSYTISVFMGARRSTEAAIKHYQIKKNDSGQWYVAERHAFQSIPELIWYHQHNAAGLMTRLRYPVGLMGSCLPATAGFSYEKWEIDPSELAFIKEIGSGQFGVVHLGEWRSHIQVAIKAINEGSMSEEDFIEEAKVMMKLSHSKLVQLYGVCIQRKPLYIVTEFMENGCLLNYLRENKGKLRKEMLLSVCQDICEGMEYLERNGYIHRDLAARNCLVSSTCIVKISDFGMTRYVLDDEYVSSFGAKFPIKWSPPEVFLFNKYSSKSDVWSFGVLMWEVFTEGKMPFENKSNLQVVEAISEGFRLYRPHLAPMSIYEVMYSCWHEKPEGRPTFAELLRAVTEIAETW
BTK, sequence (Q06187 whole entry): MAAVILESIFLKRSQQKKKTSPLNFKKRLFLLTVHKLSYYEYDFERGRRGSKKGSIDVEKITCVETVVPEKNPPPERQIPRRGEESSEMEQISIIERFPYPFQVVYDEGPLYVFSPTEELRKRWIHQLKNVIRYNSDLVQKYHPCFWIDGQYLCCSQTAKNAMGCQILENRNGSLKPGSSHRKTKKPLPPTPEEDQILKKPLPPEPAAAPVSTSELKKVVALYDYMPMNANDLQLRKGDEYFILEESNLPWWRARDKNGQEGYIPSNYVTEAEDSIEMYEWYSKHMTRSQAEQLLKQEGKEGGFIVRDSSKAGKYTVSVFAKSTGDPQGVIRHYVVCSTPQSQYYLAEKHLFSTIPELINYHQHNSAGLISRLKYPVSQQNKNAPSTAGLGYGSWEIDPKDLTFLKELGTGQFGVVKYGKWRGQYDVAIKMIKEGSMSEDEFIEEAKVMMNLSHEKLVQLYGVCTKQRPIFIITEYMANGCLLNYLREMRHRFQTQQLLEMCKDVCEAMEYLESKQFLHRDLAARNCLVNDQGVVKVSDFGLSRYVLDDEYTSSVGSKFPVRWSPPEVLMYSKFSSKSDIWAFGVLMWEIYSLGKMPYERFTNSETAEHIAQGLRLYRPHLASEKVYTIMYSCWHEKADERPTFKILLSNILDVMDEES

One may read the IC50 as the midpoint of a concentration-inhibition curve. A low value points to greater potency in that assay. As to `C=CC(=O)N1CC[C@]2(C1)C[C@H](n1c(NC(=O)c3ccc(C(F)F)s3)nc3cc(CN4CCCC4)ccc31)C2` [Compound 34], the results for the IC50 against TXK and at BTK were 0.45 nM and 1.39 nM, respectively.

For the compound `C=CC(=O)N1CC[C@]2(C1)C[C@H](n1c(NC(=O)c3ccc(C(F)F)s3)nc3cc(CN[C@H]4CC[C@H](O)CC4)ccc31)C2` [Compound 35], the values for the IC50 at TXK and against BTK were 0.46 nM and 1.04 nM, respectively.

Consider `C=CC(=O)N1CC[C@]2(C1)C[C@H](n1c(NC(=O)c3ccc(C(F)F)s3)nc3cc(CN[C@H]4C[C@H](O)C4)ccc31)C2` [Compound 36], for which the IC50 against TXK stood at 0.63 nM; against BTK, 1.14 nM.

In the case of `C=CC(=O)N1CC[C@]2(C1)C[C@H](n1c(NC(=O)c3cccc(-c4cnco4)c3)nc3cc(CN[C@@H](C)C(C)(C)C)ccc31)C2` [Compound 38], the IC50 at TXK is 0.67 nM; against BTK, 4.08 nM.

Turning to `C=CC(=O)N1CC[C@]2(C1)C[C@H](n1c(NC(=O)c3ccc(-c4cnco4)cc3)nc3cc(CN[C@@H](C)C(C)(C)C)ccc31)C2` [Compound 39], the IC50 against TXK worked out at 0.97 nM; against BTK it was 5.67 nM.

Turning to `C=CC(=O)N1CC[C@]2(C1)C[C@H](n1c(NC(=O)c3ccc(-c4cnco4)s3)nc3cc(CN4CCCC4)ccc31)C2` [Compound 40], the IC50 was determined as 0.72 nM against TXK and 1.16 nM at BTK.

`C=CC(=O)N1CC[C@]2(C1)C[C@H](n1c(NC(=O)c3ccc(-c4cnco4)s3)nc3cc(CN4CCOCC4)ccc31)C2` [Compound 41]: the IC50 stood at 0.92 nM on TXK and 1.81 nM against BTK.

Turning to `C=CC(=O)N1CC[C@]2(C1)C[C@H](n1c(NC(=O)c3ccc(-c4cnco4)s3)nc3cc(CN[C@H]4C[C@H](O)C4)ccc31)C2` [Compound 43], the values for the IC50 on TXK and on BTK were 0.32 nM and 0.53 nM, respectively.

Turning to `C=CC(=O)N1CC[C@]2(C1)C[C@H](n1c(NC(=O)c3ccns3)nc3ccccc31)C2` [Compound 46], the IC50 at TXK was found to be 1.1 nM; against BTK it was 1.44 nM.

Regarding `C=CC(=O)N1CC[C@]2(C1)C[C@H](n1c(NC(=O)c3ccc(C)nc3)nc3ccccc31)C2` [Compound 47], the figures for the IC50 on TXK and at BTK were 2.69 nM and 11.3 nM, respectively.

Take `C=CC(=O)N1CC[C@]2(C1)C[C@H](n1c(NC(=O)c3ccc(C#N)cc3)nc3ccccc31)C2` [Compound 48]: the values for the IC50 against TXK and against BTK were 1.16 nM and 4.37 nM, respectively.

`C=CC(=O)N1CC[C@]2(C1)C[C@H](n1c(NC(=O)c3cccc(-c4cnco4)c3)nc3ccccc31)C2` [Compound 49]: the figures for the IC50 against TXK and at BTK were 1.39 nM and 13.7 nM, respectively.

On to `C=CC(=O)N1CC[C@]2(C1)C[C@H](n1c(NC(=O)c3ccc(-c4cnco4)s3)nc3cc(N(C)C(=O)C4CCOCC4)ccc31)C2` [Compound 51], for which the IC50 on TXK amounted to 0.44 nM; at BTK, 0.73 nM.

On to `C=CC(=O)N1CC[C@]2(C1)C[C@H](n1c(NC(=O)c3ccc(-c4cnco4)s3)nc3cc(N(C)C(=O)C4CC4)ccc31)C2` [Compound 52], for which the results for the IC50 at TXK and on BTK were 0.39 nM and 0.58 nM, respectively.

On to `C=CC(=O)N1CC[C@]2(C1)C[C@H](n1c(NC(=O)c3ccc(-c4cnco4)s3)nc3cc(N(C)C(C)=O)ccc31)C2` [Compound 53], for which the values for the IC50 at TXK and at BTK were 0.39 nM and 0.64 nM, respectively.

For the compound `C=CC(=O)N1CC[C@]2(C1)C[C@H](n1c(NC(=O)c3ccc(-c4cnco4)s3)nc3cc(N(C)C(=O)C(C)C)ccc31)C2` [Compound 54], the half-maximal inhibitory concentration (IC50) is 0.3 nM on TXK and 0.56 nM at BTK.

As for `C=CC(=O)N1CC[C@]2(C1)C[C@H](n1c(NC(=O)c3ccc(OC)nc3)nc3ccccc31)C2` [Compound 55], the IC50 at TXK came to 3.41 nM; against BTK, 27.4 nM.

As to `C=CC(=O)N1CC[C@]2(C1)C[C@H](n1c(NC(=O)c3ccc(-c4cnco4)s3)nc3cccc(F)c31)C2` [Compound 56], the figures for the IC50 on TXK and at BTK were 0.26 nM and 1.56 nM, respectively.

For `C=CC(=O)N1CC[C@]2(C1)C[C@H](n1c(NC(=O)c3ccc(-c4cnco4)s3)nc3ccc(F)cc31)C2` [Compound 58], the IC50 on TXK was 0.29 nM; at BTK it was 1.32 nM.

In the case of `C=CC(=O)N1CC[C@]2(C1)C[C@H](n1c(NC(=O)c3ccc(-c4cnco4)s3)nc3cc(N(C)C(=O)[C@H](C)N4CCOCC4)ccc31)C2` [Compound 59], the IC50 against TXK stood at 0.44 nM; against BTK it was 1.64 nM.

In the case of `C=CC(=O)N1CC[C@]2(C1)C[C@H](n1c(NC(=O)c3ccc(-c4cnco4)s3)nc3cc(N(C)C(=O)C4CCCCC4)ccc31)C2` [Compound 60], the values for the IC50 at TXK and against BTK were 0.4 nM and 1.15 nM, respectively.

As to `C=CC(=O)N1CC[C@]2(C1)C[C@H](n1c(NC(=O)c3ccc(-c4cnco4)s3)nc3c(F)cccc31)C2` [Compound 61], the IC50 is 0.49 nM against TXK and 6.77 nM against BTK.

As for `C=CC(=O)N1CC[C@]2(C1)C[C@@H](n1c(NC(=O)c3ccc(-c4cnco4)s3)nc3cccc(F)c31)C2` [Compound 62], the IC50 was found to be 1.58 nM against TXK and 10.5 nM on BTK.

Turning to `C=CC(=O)N1CC[C@]2(C1)C[C@H](n1c(NC(=O)c3ccc(-c4cnco4)s3)nc3cc(Cl)ccc31)C2` [Compound 63], the IC50 against TXK worked out at 0.37 nM; against BTK it was 1.29 nM.

Regarding `C=CC(=O)N1CC[C@]2(C1)C[C@H](n1c(NC(=O)c3ccc(-c4cnco4)s3)nc3c(Cl)cccc31)C2` [Compound 64], the values for the IC50 against TXK and against BTK were 39.7 nM and 124 nM, respectively.

With `C=CC(=O)N1CC[C@]2(C1)C[C@H](n1c(NC(=O)c3ccc(-c4cnco4)s3)nc3ccc(Cl)cc31)C2` [Compound 65], the IC50 against TXK turned out to be 0.42 nM; on BTK it was 1.99 nM.

Take `C=CC(=O)N1CC[C@]2(C1)C[C@H](n1c(NC(=O)c3ccc(Oc4ccccc4)nc3)nc3ccccc31)C2` [Compound 66]: the IC50 at TXK was 4.34 nM; on BTK it was 11.2 nM.

As to `C=CC(=O)N1CC[C@]2(C1)C[C@@H](n1c(NC(=O)c3ccc(-c4cnco4)s3)nc3c(F)cccc31)C2` [Compound 67], the IC50 turned out to be 19.7 nM against TXK and 99.2 nM at BTK.

In the case of `C=CC(=O)N1CC[C@]2(C1)C[C@H](n1c(NC(=O)c3ccc(-c4ccccn4)s3)nc3ccccc31)C2` [Compound 74], the IC50 worked out at 1.62 nM on TXK and 25.8 nM on BTK.

As for `C=CC(=O)N1CC[C@]2(C1)C[C@H](n1c(NC(=O)c3ccc(-c4ccnn4C)s3)nc3ccccc31)C2` [Compound 75], the values for the IC50 on TXK and against BTK were 0.12 nM and 1.03 nM, respectively.

For the compound `C=CC(=O)N1CC[C@]2(C1)C[C@H](n1c(NC(=O)c3ccc(-c4cccnn4)s3)nc3ccccc31)C2` [Compound 76], the values for the IC50 against TXK and against BTK were 2.8 nM and 22.6 nM, respectively.

As to `C=CC(=O)N1CC[C@]2(C1)C[C@H](n1c(NC(=O)c3ccc(-c4cnco4)s3)nc3ccc(CN4CCOCC4)cc31)C2` [Compound 77], the IC50 was determined as 0.37 nM against TXK and 0.78 nM against BTK.
